Consider two molecules from patent US8828972B2, “Formulations containing alkylphosphocholines using novel negative charge carriers” (Max-Planck-Gesellschaft zur Foerderung der Wissenschaften …, priority 2004, dated 2014).

SMILES strings stand for the structures.

The test system of assay [1] is Tumour cells. In words: Sensitisation of tumour cells to radiation therapy. Format: cell-based. The conditions noted are these: tumour cells doped with the substance.
The subject of assay [2] is Cushing's and bladder tumours. In words: Treatment of cancer in dogs. The format is in vivo.

Regarding `CCCCCCCCC=CCCCCCCCCCCCCOP(=O)([O-])OCCC[N+](C)(C)C` [erufosin], the “sensitisation to radiation therapy” value in assay [1] is given as “sensitised to radiation therapy”.

As for `CCCCCCCCC=CCCCCCCCCCCCCOP(=O)([O-])OCCC[N+](C)(C)C` [erucylphospho-(N,N,N-trimethyl)-propylammonium], the “treatment of Cushing's and bladder tumours” value in assay [2] is “treated successfully”.
